Test results taken from patent publication US7718640B2, “Methods and pharmaceutical compositions for reliable achievement of acceptable serum testosterone levels” (Bayer-Schering Pharma AG, priority 2003, dated 2010).

How the values were obtained:
[1] = Long-term efficacy and safety study of intramuscular TU 1000 mg in hypogonadal men (Example 2); type: in vivo; settings: 4 TU doses of 1000 mg i.m. per year (12-week intervals), 4 ml castor oil:benzyl benzoate 1:1.7
Description: The therapeutic efficacy and safety of a formulation containing testosterone undecanoate 1000 mg in a vehicle of 4 ml of a mixture of castor oil and benzyl benzoate in a ratio of 1:1.7 by volume has been investigated in hypogonadal men. The formulation (4 mL, 1000 mg of testosterone undecanoate) was injected intramuscularly to the hypogonadal men according to the following scheme: • initial phase comprising 4 injections of the formulation with intervals of 6 weeks between the injections. • maintenance phase comprising injecting the formulation in intervals of 10 or 12 weeks between injections.
The present study relates to a one-arm study examining the efficacy and safety of long-term intramuscular injection of testosterone undecanoate for the treatment of symptoms of hypogonadism in men. The patients received 4 testosterone undecanoate injections of 1000 mg the first three times of injections with an interval of 6 weeks, the 4th injection and subsequent injections with 12-week intervals.

[2] = Pharmacokinetic profile: total serum testosterone after intramuscular TU in hypogonadal men (Example 3, FIG. 1); type: in vivo
Description: See Example 3 for the injection scheme. […] The filled lines show the continued injection of 1000-mg TU with an interval of 12 weeks between injections.
The pharmacokinetic profile of a formulation containing testosterone undecanoate (TU) 1000 mg in a vehicle of 4 ml of a mixture of castor oil and benzyl benzoate in a ratio of 1:1.7 by volume was tested in hypogonadal men (having testosterone levels in serum of less than 10 nmol/l). An initial phase of two first intramuscularly injections of 1000 mg TU with 6-weeks interval between the two injections, followed by a maintenance phase of subsequent 3 intramuscularly injections of 1000 mg TU separated by an interval of 10 weeks between each of the injections. Then 1000 mg of testosterone undecanoate (TU) was intramuscularly injected every 12 weeks. 5 treatment periods were provided with an interval of 12 weeks between each injection.

[3] = Comparison of initial phases with 6 versus 10 weeks between injections; serum testosterone (total) before each additional injection (Example 4); type: in vivo, men; settings: for Mean testosterone level (total) in serum after 1st injection / Mean testosterone level (total) in serum after 2nd injection: 6 men
Description: The pharmacokinetic profile of a formulation containing testosterone undecanoate (TU)1000 mg in a vehicle of 4 ml of a mixture of castor oil and benzyl benzoate in a ratio of 1:1.7 by volume was tested using two different regimens in hypogonadal men.
In regimen A, an initial phase of two first intramuscularly injections of 1000 mg TU with mean of 9.2-weeks (64.4 days) interval between the two injections, followed by a maintenance phase of subsequent intramuscularly injections of 1000 mg TU separated by an interval of a mean of 10.2 weeks ([…]) after second injection.
In regimen B, an initial phase of two first intramuscularly injections of 1000 mg TU with mean of 6.1-weeks (42.5 days) interval between the first two injections, followed by a maintenance phase of subsequent intramuscularly injections of 1000 mg TU separated by an interval of mean of 10.1 weeks (70.5 days) after second injections.
The concentration of testosterone (total) was determined in serum before each additional injection of TU.

In the case of “17β-hydroxyandrost-4-en-3-one undecanoate [TU]”, the “restoration of physiological serum T levels” value [1] was “sufficient to restore physiological serum T levels in all 36 patients over most of the measurement times”, the “minimum testosterone levels (total levels) after 12 weeks” value ([2]; 12 weeks after injection of 1000 mg TU i.m., maintenance phase) was no less than 10 nmol and the “minimum testosterone levels for a treatment period of 14 weeks” value ([2]; 14 weeks, upon extrapolating the serum levels of testosterone, lowest acceptable concentration about 10 nmol) was “The same was shown to apply”. For the same substance, the “serum testosterone levels throughout the entire period between injections” value ([2]; first injection interval 6 weeks, subsequent injections at 10 or 12 week intervals) was 10 to 35 nmol/L, the “maximal and minimal testosterone levels (total levels) in serum” value ([2]; hypogonadal men, 1000 mg TU i.m. in 4 ml castor oil:benzyl benzoate 1:1.7, 2 injections 6 weeks apart, then 3 at 10-week, then 12-week intervals) was “within the physiological acceptable range” and the “accumulation of testosterone over time” value ([2]; same scheme as Example 3, 1000 mg TU i.m.) was “no accumulation of testosterone is seen over time”. The “Mean testosterone level (total) in serum after 1st injection” value ([3]; Regime A, mean 9.2 weeks after 1st injection of 1000 mg TU i.m.) was 7.0 nmol/L, the “Mean testosterone level (total) in serum after 2nd injection” value ([3]; Regime A, mean 10.8 weeks after 2nd injection of 1000 mg TU i.m.) was 8.8 nmol/L and the “Mean testosterone level (total) in serum after 1st injection” value ([3]; Regime B, mean 6.1 weeks after 1st injection of 1000 mg TU i.m.) was 12.2 nmol/L. The “Mean testosterone level (total) in serum after 2nd injection” value ([3]; Regime B, mean 10.1 weeks after 2nd injection of 1000 mg TU i.m.) was 12.5 nmol/L, the “sufficiency of testosterone levels over the entire period up to the following injection” value ([3]; Regimen A: long-term intervals in both initial and maintenance phase) was “do not result in the sufficient levels of testosterone above 10 nmol” and the “testosterone levels over the period between injections” value ([3]; Regimen B: interval in the initial phase decreased to 6 weeks) was “above 10 nmol/l”.
